These compounds were tested against T1, human PPARdelta (Homo sapiens, UniProt Q03181) (assay: cellular PPARdelta assay (GAL4 luciferase reporter, stably transfected HEK cell line)).
T1 construct: human PPARdelta receptor (amino acids S139-Y441); expressed in transfected cells; plasmid pcDNA3
T1 sequence (Q03181 139-441): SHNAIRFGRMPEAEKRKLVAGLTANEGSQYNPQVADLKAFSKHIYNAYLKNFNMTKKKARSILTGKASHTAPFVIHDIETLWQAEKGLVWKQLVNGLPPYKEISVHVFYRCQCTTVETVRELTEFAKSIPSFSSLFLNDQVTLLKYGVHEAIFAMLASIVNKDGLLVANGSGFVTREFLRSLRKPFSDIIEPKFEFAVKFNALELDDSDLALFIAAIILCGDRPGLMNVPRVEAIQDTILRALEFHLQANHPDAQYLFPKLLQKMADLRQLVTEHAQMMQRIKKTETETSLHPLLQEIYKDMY
Type: cell-based
Procedure: The PPARalpha reporter cell line is cultivated to 80% confluence in DMEM (# 41965-039, Invitrogen) which is mixed with the following additions: 10% cs-FCS (fetal calf serum; #SH-30068.03, Hyclone), 0.5 mg/ml zeocin (#R250-01, Invitrogen), 0.5 mg/ml G418 (#10136-027, Invitrogen), 1% penicillin-streptomycin solution (#15140-122, Invitrogen) and 2 mM L-glutamine (#25030-024, Invitrogen). The cultivation takes place in standard cell culture bottles (# 353612, Becton Dickinson) in a cell culture incubator at 37° C. in the presence of 5% CO2. The 80%-confluent cells are washed once with 15 ml of PBS (#14190-094, Invitrogen), treated with 3 ml of trypsin solution (#25300-054, Invitrogen) at 37° C. for 2 min, taken up in 5 ml of the DMEM described and counted in a cell counter. After dilution to 500.000 cells/ml, 35,000 cells are seeded in each well of a 96 well microtiter plate with a clear plastic base (#3610, Corning Costar). The plates are incubated in the cell culture incubator at 37° C. and 5% CO2 for 24 h.
PPARalpha agonists to be tested are dissolved in DMSO in a concentration of 10 mM. This stock solution is diluted in DMEM (#41965-039, Invitrogen) which is mixed with 5% cs-FCS (#SH-30068.03, Hyclone), 2 mM L-glutamine (#25030-024, Invitrogen) and the previously described antibiotics (zeocin, G418, penicillin and streptomycin). Test substances are tested in 11 different concentrations in the range from 10 μM to 100 pM.
The medium of the PPARalpha reporter cell line seeded on day 1 is completely removed by aspiration, and the test substances diluted in medium are immediately added to the cells. The dilution and addition of the substances is carried out by a robot (Beckman FX). The final volume of the test substances diluted in medium is 100 μl per well of a 96 well microtiter plate. The DMSO concentration in the assay is less than 0.1% v/v in order to avoid cytotoxic effects of the solvent.
The PPARalpha reporter cells treated with the test substances are removed from the incubator, and the medium is aspirated off. The cells are lyzed by pipetting 50 μl of Bright Glo reagent (from Promega) into each well of a 96 well microtiter plate. After incubation at room temperature in the dark for 10 minutes, the microtiter plates are measured in the luminometer (Trilux from Wallac). The measuring time for each well of a microtiter plate is 1 sec.
The raw data from the luminometer are transferred into a Microsoft Excel file. Dose-effect plots and EC50 values of PPAR agonists are calculated using the XL.Fit program as specified by the manufacturer (IDBS). […] The compounds of the present invention of formula I activate the PPARalpha receptor.
The potency of substances which bind to human PPARdelta and activate it in an agonistic manner was analyzed using a stably transfected HEK cell line (HEK=human embryo kidney) which is referred to here as PPARdelta reporter cell line. In analogy to the assay described for PPARalpha, the PPARdelta reporter cell line also contains two genetic elements, a luciferase reporter element (pdeltaM-GAL4-Luc-Zeo) and a PPARdelta fusion protein (GR-GAL4-humanPPARdelta-LBD) which mediates expression of the luciferase reporter element depending on a PPARdelta ligand. The stably and constitutively expressed fusion protein GR-GAL4-humanPPARdelta-LBD binds in the cell nucleus of the PPARdelta reporter cell line via the GAL4 protein portion to the GAL4 DNA binding motifs 5′-upstream of the luciferase reporter element which is stably integrated in the genome of the cell line. There is only little expression of the luciferase reporter gene in the absence of a PPARdelta ligand if fatty acid-depleted fetal calf serum (cs-FCS) is used in the assay. PPARdelta ligands bind and activate the PPARdelta fusion protein and thereby stimulate expression of the luciferase reporter gene. The luciferase which is formed can be detected by means of chemiluminescence via an appropriate substrate. […]

| Compound | EC50 [nM] |
| --- | --- |
| CCC(Oc1ccc(-c2noc(=O)[nH]2)c(Cl)c1)c1sc(-c2ccc(C(F)(F)F)cc2)nc1C (racemic) [Example 4, 3-(2-Chloro-4-{1-[4-methyl-2-(4-trifluoromethyl-phenyl)-thiazol-5-yl]-propoxy}-phenyl)-4H-[1,2,4]oxadiazol-5-one] | 0.2 |
| Cc1nc(-c2ccc(C(F)(F)F)cc2)sc1C(Cc1ccccn1)Oc1ccc(-c2noc(=O)[nH]2)c(Cl)c1 (racemic) [Example 10, 3-(2-Chloro-4-{1-[4-methyl-2-(4-trifluoromethyl-phenyl)-thiazol-5-yl]-2-pyridin-2-yl-ethoxy}-phenyl)-4H-[1,2,4]oxadiazol-5-one] | 6 |
| CCC(Oc1ccc(-c2noc(=O)[nH]2)c(C2CC2)c1)c1sc(-c2ccc(C(F)(F)F)cc2)nc1C (racemic) [Example 16, 3-(2-Cyclopropyl-4-{1-[4-methyl-2-(4-trifluoromethyl-Phenyl)-thiazol-5-yl]-propoxy}-phenyl)-4H-[1,2,4]oxadiazol-5-one] | 1 |
| Cc1nc(-c2ccc(C(F)(F)F)cc2)sc1C(Oc1ccc(-c2noc(=O)[nH]2)c(Cl)c1)C(F)(F)F (racemic) [Example 20, 3-(2-Chloro-4-{2,2,2-trifluoro-1-[4-methyl-2-(4-trifluoromethyl-phenyl)-thiazol-5-yl]-ethoxy}-phenyl)-4H-[1,2,4]oxadiazol-5-one] | 1 |
| Cc1nc(-c2ccc(C(F)(F)F)cc2)sc1C(OCc1ccc(-c2noc(=O)[nH]2)c(F)c1)C(F)(F)F (racemic) [Example 22, 3-(2-Fluoro-4-{2,2,2-trifluoro-1-[4-methyl-2-(4-trifluoromethyl-phenyl)-thiazol-5-yl]-ethoxymethyl}-phenyl)-4H-[1,2,4]oxadiazol-5-one] | 17 |
| Cc1nc(-c2ccc(C(F)(F)F)cc2)sc1C(OCc1ccc(-c2noc(=O)[nH]2)c2cccnc12)C(F)(F)F (racemic) [Example 25, 3-(8-{2,2,2-Trifluoro-1-[4-methyl-2-(4-trifluoromethyl-phenyl)-thiazol-5-yl]-ethoxymethyl}-quinolin-5-yl)-4H-[1,2,4]oxadiazol-5-one] | 3 |
| Cc1nc(-c2ccc(C(F)(F)F)cc2)sc1C(OCc1ccc(-c2noc(=O)[nH]2)c(Cl)n1)C(F)(F)F (racemic) [Example 27, 3-(2-Chloro-6-{2,2,2-trifluoro-1-[4-methyl-2-(4-trifluoromethyl-phenyl)-thiazol-5-yl]-ethoxymethyl}-pyridin-3-yl)-4H-[1,2,4]oxadiazol-5-one] | 17 |
| Cc1nc(-c2ccc(C(F)(F)F)cc2)sc1C(OCc1ccc(-c2noc(=O)[nH]2)cc1)C(F)(F)C1CC1 (racemic) [Example 32, 3-(4-{2-Cyclopropyl-2,2-difluoro-1-[4-methyl-2-(4-trifluoromethyl-phenyl)-thiazol-5-yl]-ethoxymethyl}-phenyl)-4H-[1,2,4]oxadiazol-5-one] | 127 |
| CCCCC(Cc1ccc(-c2noc(=O)[nH]2)c(F)c1)c1sc(-c2ccc(C(F)(F)F)cc2)nc1C (racemic) [Example 34, 3-(2-Fluoro-4-{2-[4-methyl-2-(4-trifluoromethyl-phenyl)-thiazol-5-yl]-hexyl}-phenyl)-4H-[1,2,4]oxadiazol-5-one] | 1 |
| CCC(Oc1ccc(-c2noc(=O)[nH]2)c(F)c1)c1sc(-c2ccc(C(F)(F)F)cc2)nc1C (racemic) [Example 35, 3-(2-Fluoro-4-{1-[4-methyl-2-(4-trifluoromethyl-phenyl)-thiazol-5-yl]-propoxy}-phenyl)-4H-1,2,4-oxadiazol-5-one] | 4 |
| CCC(Oc1ccc(-c2noc(=O)[nH]2)c(OC(F)F)c1)c1sc(-c2ccc(C(F)(F)F)cc2)nc1C (racemic) [Example 37, 3-(2-Difluoromethoxy-4-{1-[4-methyl-2-(4-trifluoromethyl-phenyl)-thiazol-5-yl]-propoxy}-phenyl)-4H-1,2,4-oxadiazol-5-one] | 0.5 |
| CCC(Oc1ccc(-c2noc(=O)[nH]2)c(OC)c1)c1sc(-c2ccc(C(F)(F)F)cc2)nc1CN1CCC(C(F)(F)F)CC1 (racemic) [Example 42, 3-(2-Methoxy-4-{1-[2-(4-trifluoromethyl-phenyl)-4-(4-trifluoromethyl-piperidin-1-ylmethyl)-thiazol-5-yl]-propoxy}-phenyl)-4H-1,2,4-oxadiazol-5-one] | 8 |
| CCC(Oc1ccc(-c2noc(=O)[nH]2)c(OCC(F)(F)F)c1)c1sc(-c2ccc(C(F)(F)F)cc2)nc1C (racemic) [Example 48, 3-[4-{1-[4-Methyl-2-(4-trifluoromethyl-phenyl)-thiazol-5-yl]-propoxy}-2-(2,2,2-trifluoro-ethoxy)-phenyl]-4H-1,2,4-oxadiazol-5-one] | 1 |
| CC[C@@H](Oc1cc(OC)c(-c2noc(=O)[nH]2)cc1F)c1sc(-c2ccc(C(F)(F)F)cc2)nc1C [(+)-40, (+)-3-(5-Fluoro-2-methoxy-4-{(R)-1-[4-methyl-2-(4-trifluoromethyl-phenyl)-thiazol-5-yl]-propoxy}-phenyl)-4H-1,2,4-oxadiazol-5-one] | 1 |
| CC[C@@H](Oc1ccc(-c2noc(=O)[nH]2)c(OC(F)F)c1)c1sc(-c2ccc(C(F)(F)F)cc2)nc1CN1CCC(C(F)(F)F)CC1 [(+)-45, (+)-3-(2-Difluoromethoxy-4-{(R)-1-[2-(4-trifluoromethyl-phenyl)-4-(4-trifluoromethyl-piperidin-1-ylmethyl)-thiazol-5-yl]-propoxy}-phenyl)-4H-1,2,4-oxadiazol-5-one] | 0.3 |

From patent publication US7834030B2, “Phenyl-[1,2,4]-oxadiazol-5-one derivatives, pharmaceutical compositions and therapeutic use thereof” (Sanofi-Aventis, priority 2005, dated 2010)
